# Assay results published in PubChem BioAssay AID1250 (SRMLSC, 2008).
# Active and inactive are the calls of the source.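 How the source made its calls: active means inhibition of at least 30% at one or more tested concentrations; inactive means inhibition below 30% at every dose.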
# Test: inhibitors of Bluetongue virus cytopathic effect, confirmation, arbovirus, BSR cells (AID 1250)
# Details: BSR cells, Bluetongue virus CPE, ATP luminescence, 72 h; at 20 µM (top of the series)
row,Compound,CPE inhibition
1,CC(C)c1cc(C(F)(F)F)n2nc(C(=O)Nc3ccc4c(c3)OCO4)cc2n1,9.64% (inactive)
2,N#Cc1c(SCc2cccc(Cl)c2)sc(C(=O)c2ccccc2)c1N,25.2% (inactive)
3,CC(=O)Nc1ccc(-c2csc(NC(=O)c3ccc(C)o3)n2)cc1,27.8% (inactive)
4,CCc1ccc(C2=CC(c3cc(Br)ccc3F)n3ncnc3N2)cc1 (stereo not drawn),-5.9% (inactive)
5,O=C(Nc1nnc(SCc2ccc(F)cc2)s1)c1ccc2c(c1)C(=O)N(c1ccccc1Cl)C2=O,20.2% (inactive)
6,Cc1cccc(-n2c(=O)c3c4c(sc3n3c(=S)[nH]nc23)CCC4)c1,7.97% (inactive)
7,CCSc1nc2c(sc3nc(C)cc(C)c32)c(=O)[nH]1,18% (inactive)
8,Cc1cccc(S(=O)(=O)Nc2nc3ccccc3nc2NCc2ccco2)c1,12.1% (inactive)
9,COCCn1c(SCC(=O)Nc2cc(Cl)ccc2OC)nc2c(c1=O)SC(C)C2 (stereo not drawn),17.7% (inactive)
10,Cc1cccc(CSc2nnc(NC(=O)CSc3nnc(C)s3)s2)c1,17.3% (inactive)
11,N#C/C(=C\c1cn[nH]c1-c1ccc(Cl)cc1)C(=O)NCc1ccccc1,12.6% (inactive)
12,CC1=C(C(=O)OC2CCCCCCC2)C(c2cccc(O)c2)NC(=O)N1 (stereo not drawn),7% (inactive)
13,CCOC(=O)CC1=NS(=O)(=O)c2ccccc2N1,2.01% (inactive)
14,C=CCOc1c(Br)cc(/C=N/Nc2ccc(C(=O)O)cc2)cc1OCC,14.1% (inactive)
15,Cc1ccc(C(=O)Nc2ccccc2SCC2CSc3nc4ccccc4c(=O)n32)cc1 (stereo not drawn),14.6% (inactive)
16,COC(=O)c1ccccc1NC(=O)CN1CCC(NC(=O)c2ccc(C)cc2)CC1,21.3% (inactive)
17,CCCCCCc1cc2cc(C(=O)Nc3ccc(OC)cc3)c(=O)oc2cc1O,-3.41% (inactive)
18,Cc1nc(Nc2ccccc2)sc1-c1ccccc1,3.32% (inactive)
19,COC(=O)Nc1ccc(S(=O)(=O)N2CCC(C(=O)N(C)C3CCCCC3)CC2)cc1,4.71% (inactive)
20,CC1=NN(c2nc(-c3ccc(Cl)cc3)cs2)C(=O)C1,8.37% (inactive)
21,O=C(O)c1cc(N/N=C2/CC(c3ccccc3)Oc3ccccc32)ccc1Cl (stereo not drawn),16.6% (inactive)
22,CCOC(=O)c1c(-c2ccc(C)cc2)csc1NC(=O)C1CC=CCC1C(=O)O (stereo not drawn),18.1% (inactive)
23,O=C(O)c1ccc(-c2nc(-c3ccc(Cl)cc3)cs2)cc1,16.2% (inactive)
24,CCC1=NN2C(=N)/C(=C\c3cccn3-c3ccc(C)cc3C)C(=O)N=C2S1,27.2% (inactive)

row,Compound,CPE inhibition
1,Cc1ccc(OCCSCc2nnc(NC(=O)Nc3cccc(Cl)c3)s2)cc1,19.4% (inactive)
2,c1coc(CNc2c3c(nc4ncnn24)CCCC3)c1,13.4% (inactive)
3,COc1ccc(Cl)cc1NC(=O)C1COc2ccccc2O1 (stereo not drawn),26.3% (inactive)
4,CCN(CC)C(=O)CSC1=N/C(=C/c2ccco2)C(=O)N1c1ccc(OC)c(Cl)c1,13.3% (inactive)
5,Cc1ccc2nc(-c3ccc(Br)o3)oc(=O)c2c1,21.3% (inactive)
6,COc1cccc(CN=C2Nc3ccccc3CS2)c1,-0.42% (inactive)
7,O=C(Nc1scc(-c2ccc(F)cc2)c1C(=O)O)c1ccco1,10% (inactive)
8,Cc1ccc(S(=O)(=O)Oc2ccc(C)cc2/C=N/N=C2\NC(=O)C(C)S2)cc1 (stereo not drawn),25.2% (inactive)
9,FC(F)(F)c1ccc(Oc2ccc3ccccc3c2Br)nc1,1.17% (inactive)
10,COc1ccc(C)cc1NC(=O)C1COc2ccccc2O1 (stereo not drawn),11.1% (inactive)
11,COc1ccc(NS(=O)(=O)c2cc(NC(=O)/C=C/c3cccs3)ccc2N2CCOCC2)cc1,18.4% (inactive)
12,Cc1cc(C)c(NC(=O)c2oc3ccccc3c2COc2ccccc2)c(C)c1,5.41% (inactive)
13,COc1ccc(/C=C/c2nc(-c3ccccc3O)n[nH]2)cc1OC,14% (inactive)
14,CCOC(=O)c1c(NC(=O)CSc2ncn[nH]2)sc(C)c1C,21% (inactive)
15,COc1ccccc1NC(=O)C12CC3CC(C1)CC(c1ccc(C)cc1)(C3)C2,18.9% (inactive)
16,CSc1nc(C)c(CCO)c(=O)[nH]1,3.71% (inactive)
17,CS(=O)(=O)C1=NSC2=NC(=O)/C(=C\c3cccn3-c3ccccc3Cl)C(=N)N21,8.16% (inactive)
18,Fc1ccccc1N1CCN(c2ncnc3[nH]ncc23)CC1,7.21% (inactive)
19,CC(C)Oc1cccc(C(=O)NC(=S)Nc2ccccc2)c1,6.77% (inactive)
20,FC(F)(F)c1cccc(Oc2ccc3c(C(F)(F)F)cc(C(F)(F)F)nc3n2)c1,3.1% (inactive)
21,CSc1nsc2nc(=O)c(/C=C3\C=Nc4ccccc43)c(N)n12,20.5% (inactive)
22,COc1ccc(-c2noc(-c3ccccc3-c3ccccc3)n2)cc1OC,10.8% (inactive)
23,CCCc1cc(=O)[nH]c(SCC(=O)NC)n1,-0.15% (inactive)
24,Cc1nn(CC(O)Cn2c3c(c4ccccc42)CCN(C)C3=O)c(C)c1Br (stereo not drawn),22.4% (inactive)
